What was measured:
Assay in all cases: relative viability (nuclei count vs DMSO), 5 days (fraction); higher = more cells survive
UMC-11 = test system: UMC-11
Outline: (§1)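 Relative viability was taken as the ratio of nuclei in treated wells to nuclei in vehicle wells. Lung cancer cell lines in 1536-well plates received compounds by pin tool one day after seeding, either one drug alone or a fixed anchor-drug dose plus five library-drug doses (not always all listed) in √10 steps. Nuclei were counted on 4× images after 5 days of treatment, and values are medians of duplicate plates.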

NCI-H650 = test system: NCI-H650
Outline: as §1

A-427 = test system: A-427
Outline: as §1

PC-3 [JPC-3] = test system: PC-3 [JPC-3]
Outline: as §1

NCI-H2405 = test system: NCI-H2405
Outline: as §1

NCI-H1975 = test system: NCI-H1975
Outline: as §1

NCI-H460 = test system: NCI-H460
Outline: as §1

NCI-H3122 = test system: NCI-H3122
Outline: as §1

SK-LU-1 = test system: SK-LU-1
Outline: as §1

NCI-H1755 = test system: NCI-H1755
Outline: as §1

NCI-H1915 = test system: NCI-H1915
Outline: as §1

NCI-H441 = test system: NCI-H441
Outline: as §1

NCI-H1793 = test system: NCI-H1793
Outline: as §1

NCI-H2023 = test system: NCI-H2023
Outline: as §1

H3255 = test system: H3255
Outline: as §1

HCC-15 = test system: HCC-15
Outline: as §1

NCI-H1437 = test system: NCI-H1437
Outline: as §1

NCI-H2009 = test system: NCI-H2009
Outline: as §1

LXF-289 = test system: LXF-289
Outline: as §1

HCC-366 = test system: HCC-366
Outline: as §1

NCI-H596 = test system: NCI-H596
Outline: as §1

PC-14 = test system: PC-14
Outline: as §1

HARA = test system: HARA
Outline: as §1

`O=c1[nH]c2ccccc2n1C1CCN(CCCC(c2ccc(F)cc2)c2ccc(F)cc2)CC1` [Pimozide] + Cc1nc(NC(=O)N2CCC[C@H]2C(N)=O)sc1-c1ccnc(C(C)(C)C(F)(F)F)c1 [Alpelisib] (partner 2 µM) was tested, and the relative viability (UMC-11; first compound 0.08 µM) was 1.05, the relative viability (UMC-11; first compound 0.253 µM) was 0.967 and the relative viability (UMC-11; first compound 0.8 µM) was 1.05. For the same compound, the relative viability (UMC-11; first compound 2.53 µM) was 1.04, the relative viability (UMC-11; first compound 8 µM) was 1.19 and the relative viability (NCI-H650; first compound 0.08 µM) was 1.04. It also gave a relative viability (NCI-H650; first compound 0.253 µM) of 1.05, a relative viability (NCI-H650; first compound 0.8 µM) of 1.09 and a relative viability (NCI-H650; first compound 2.53 µM) of 1.07. It also gave a relative viability (NCI-H650; first compound 8 µM) of 1.02, a relative viability (A-427; first compound 0.08 µM) of 1.08 and a relative viability (A-427; first compound 0.253 µM) of 1.05. It also gave a relative viability (A-427; first compound 0.8 µM) of 1.14, a relative viability (A-427; first compound 2.53 µM) of 0.987 and a relative viability (A-427; first compound 8 µM) of 1.01. It also gave a relative viability (PC-3 [JPC-3]; first compound 0.253 µM) of 0.964, a relative viability (PC-3 [JPC-3]; first compound 0.8 µM) of 0.978 and a relative viability (PC-3 [JPC-3]; first compound 2.53 µM) of 0.961. It also gave a relative viability (PC-3 [JPC-3]; first compound 8 µM) of 0.96, a relative viability (NCI-H2405; first compound 0.08 µM) of 0.782 and a relative viability (NCI-H2405; first compound 0.253 µM) of 0.622. It also gave a relative viability (NCI-H2405; first compound 0.8 µM) of 0.684, a relative viability (NCI-H2405; first compound 2.53 µM) of 0.741 and a relative viability (NCI-H2405; first compound 8 µM) of 0.61. For the same compound, the relative viability (NCI-H1975; first compound 0.08 µM) was 0.64, the relative viability (NCI-H1975; first compound 0.253 µM) was 0.715 and the relative viability (NCI-H1975; first compound 0.8 µM) was 0.606. The relative viability (NCI-H1975; first compound 2.53 µM) was 0.602, the relative viability (NCI-H1975; first compound 8 µM) was 0.535 and the relative viability (NCI-H460; first compound 0.08 µM) was 0.476. It also gave a relative viability (NCI-H460; first compound 0.253 µM) of 0.428, a relative viability (NCI-H460; first compound 0.8 µM) of 0.472 and a relative viability (NCI-H460; first compound 2.53 µM) of 0.487. For the same compound, the relative viability (NCI-H460; first compound 8 µM) was 0.493, the relative viability (NCI-H3122; first compound 0.08 µM) was 0.833 and the relative viability (NCI-H3122; first compound 0.253 µM) was 0.784. For the same compound, the relative viability (NCI-H3122; first compound 0.8 µM) was 0.784, the relative viability (NCI-H3122; first compound 2.53 µM) was 0.784 and the relative viability (NCI-H3122; first compound 8 µM) was 0.795. For the same compound, the relative viability (SK-LU-1; first compound 0.08 µM) was 0.961, the relative viability (SK-LU-1; first compound 0.253 µM) was 0.986 and the relative viability (SK-LU-1; first compound 0.8 µM) was 0.926. The relative viability (SK-LU-1; first compound 2.53 µM) was 0.719, the relative viability (SK-LU-1; first compound 8 µM) was 0.649 and the relative viability (NCI-H1755; first compound 0.08 µM) was 0.918. For the same compound, the relative viability (NCI-H1755; first compound 0.253 µM) was 0.885, the relative viability (NCI-H1755; first compound 0.8 µM) was 0.87 and the relative viability (NCI-H1755; first compound 2.53 µM) was 0.786. The relative viability (NCI-H1755; first compound 8 µM) was 0.727, the relative viability (NCI-H1915; first compound 0.08 µM) was 1.1 and the relative viability (NCI-H1915; first compound 0.253 µM) was 1.06. It also gave a relative viability (NCI-H1915; first compound 0.8 µM) of 0.837, a relative viability (NCI-H1915; first compound 2.53 µM) of 1.08 and a relative viability (NCI-H1915; first compound 8 µM) of 0.997. For the same compound, the relative viability (NCI-H441; first compound 0.08 µM) was 1.05, the relative viability (NCI-H441; first compound 0.253 µM) was 0.733 and the relative viability (NCI-H441; first compound 0.8 µM) was 0.854. The relative viability (NCI-H441; first compound 2.53 µM) was 0.574, the relative viability (NCI-H441; first compound 8 µM) was 0.442 and the relative viability (NCI-H1793; first compound 0.08 µM) was 0.491. The relative viability (NCI-H1793; first compound 0.253 µM) was 0.567, the relative viability (NCI-H1793; first compound 0.8 µM) was 0.988 and the relative viability (NCI-H1793; first compound 2.53 µM) was 0.665. The relative viability (NCI-H1793; first compound 8 µM) was 0.87, the relative viability (NCI-H2023; first compound 0.08 µM) was 0.524 and the relative viability (NCI-H2023; first compound 0.253 µM) was 0.632. For the same compound, the relative viability (NCI-H2023; first compound 0.8 µM) was 0.533, the relative viability (NCI-H2023; first compound 2.53 µM) was 0.535 and the relative viability (NCI-H2023; first compound 8 µM) was 0.461. For the same compound, the relative viability (H3255; first compound 0.253 µM) was 0.569, the relative viability (H3255; first compound 0.8 µM) was 0.599 and the relative viability (H3255; first compound 2.53 µM) was 0.754. The relative viability (H3255; first compound 8 µM) was 0.711, the relative viability (HCC-15; first compound 0.08 µM) was 0.913 and the relative viability (HCC-15; first compound 0.253 µM) was 0.91. It also gave a relative viability (HCC-15; first compound 0.8 µM) of 0.832, a relative viability (HCC-15; first compound 2.53 µM) of 0.782 and a relative viability (HCC-15; first compound 8 µM) of 0.769. For the same compound, the relative viability (NCI-H1437; first compound 0.08 µM) was 1.04, the relative viability (NCI-H1437; first compound 0.253 µM) was 0.965 and the relative viability (NCI-H1437; first compound 0.8 µM) was 1.02. For the same compound, the relative viability (NCI-H1437; first compound 2.53 µM) was 0.862, the relative viability (NCI-H1437; first compound 8 µM) was 0.916 and the relative viability (NCI-H2009; first compound 0.08 µM) was 1.16. It also gave a relative viability (NCI-H2009; first compound 0.253 µM) of 1.15, a relative viability (NCI-H2009; first compound 0.8 µM) of 1.14 and a relative viability (NCI-H2009; first compound 2.53 µM) of 1.23. For the same compound, the relative viability (NCI-H2009; first compound 8 µM) was 1.05, the relative viability (LXF-289; first compound 0.08 µM) was 0.97 and the relative viability (LXF-289; first compound 0.253 µM) was 0.955. It also gave a relative viability (LXF-289; first compound 0.8 µM) of 1.01, a relative viability (LXF-289; first compound 2.53 µM) of 1.02 and a relative viability (LXF-289; first compound 8 µM) of 0.945. It also gave a relative viability (HCC-366; first compound 0.08 µM) of 0.354, a relative viability (HCC-366; first compound 0.253 µM) of 0.381 and a relative viability (HCC-366; first compound 0.8 µM) of 0.406. It also gave a relative viability (HCC-366; first compound 2.53 µM) of 0.425, a relative viability (HCC-366; first compound 8 µM) of 0.518 and a relative viability (NCI-H596; first compound 0.08 µM) of 0.481. It also gave a relative viability (NCI-H596; first compound 0.253 µM) of 0.476, a relative viability (NCI-H596; first compound 0.8 µM) of 0.374 and a relative viability (NCI-H596; first compound 2.53 µM) of 0.481. It also gave a relative viability (NCI-H596; first compound 8 µM) of 0.392, a relative viability (PC-14; first compound 0.08 µM) of 0.606 and a relative viability (PC-14; first compound 0.253 µM) of 0.911. The relative viability (PC-14; first compound 0.8 µM) was 0.928, the relative viability (PC-14; first compound 2.53 µM) was 1.05 and the relative viability (PC-14; first compound 8 µM) was 0.955. The relative viability (HARA; first compound 0.08 µM) was 0.718, the relative viability (HARA; first compound 0.253 µM) was 0.829 and the relative viability (HARA; first compound 0.8 µM) was 0.565. The relative viability (HARA; first compound 2.53 µM) was 0.675 and the relative viability (HARA; first compound 8 µM) was 0.728.

Source: the supplement of paper PMC10307832
